{"source": "paper PMC5618194", "about": "“Orally Delivered Scorpion Antimicrobial Peptides Exhibit Activity against Pea Aphid (Acyrthosiphon pisum) and Its Bacterial Symbionts” (Toxins, 2017)", "key": {"S. symbiotica CWBI-2.3": {"system": "S. symbiotica CWBI-2.3", "assay": "microbe, parasite or virus in culture", "assay_type": "cell-based, Serratia symbiotica", "settings": "broth microdilution (CLSI), 96-well polypropylene plates, 535 medium (Tripticase soy broth), 5 × 10^5 CFU/mL, 18 h, absorbance at 600 nm, two-fold dilutions 500 to 4 µg/mL, lowest concentration causing complete growth inhibition", "method": "S. symbiotica strain CWBI-2.3, the only aphid symbiotic bacterium that can be cultivated in the laboratory, was purchased from the Leibniz Institute DSMZ (Braunschweig, Germany) and cultivated as recommended by the supplier. MICs were determined according to the CLSI guidelines using a broth microdilution assay in 96-well polypropylene microtiter plates. The bacteria were cultivated overnight at 28 °C using 535 medium (Tripticase soy broth) and diluted to 5 × 10^5 CFU/mL in broth. The AMPs were dissolved in water to a concentration of 4 mg/mL and a series of two-fold dilutions was prepared in 535 broths, ranging from 500 to 4 µg/mL. S. symbiotica CWBI-2.3 in an unmodified medium was used as a positive control, and blanks were prepared with medium only or with medium and water (the latter to exclude any possible negative effect of water on the bacteria). The bacteria were incubated for 18 h and the absorbance at 600 nm was recorded every 20 min. The MICs were defined as the lowest concentrations of AMP causing complete bacterial growth inhibition."}, "A. pisum [1]": {"system": "A. pisum", "assay_type": "in vivo, Acyrthosiphon pisum", "settings": "for % Survival: after three days of feeding, 48 h old nymphs, ten per chamber, five replicates, control AP3 diet survival = 90%; for Kaplan-Meier analysis: Mean, Estimate (survival time): three days of feeding, control 2.880, estimation limited to the largest survival time if censored", "method": "(§1) A. pisum nymphs (48 h old) were fed for three days on an artificial AP3 diet in modified chambers. The AP3 diet was mixed with the corresponding AMP or control treatment. Ten nymphs were placed in each chamber and five replicates were included per treatment. AMPs were tested at three different concentrations: 50, 250, and 500 µg/mL. Untreated aphids were fed on the control AP3 diet. Positive control treatments comprised aphids fed on the AP3 diet supplemented with the insecticide imidacloprid (5 µg/mL) or the antibiotic rifampicin (50 µg/mL) (Sigma-Aldrich, Taufkirchen, Germany). Imidacloprid is strongly hydrophobic, and was therefore prepared first as a highly concentrated stock (1000 µg/mL) in acetone and working solutions were diluted in the AP3 diet. The corresponding control (AP3 + acetone) was tested on the aphids, and survival was not affected when compared to AP3 diet alone or AP3 diet diluted with water (data not shown). Mortality was scored after 24, 48, and 72 h of feeding. Aphids that survived the three-day treatment were transferred to agar plates containing bean plant leaves and reared for another two weeks in order to determine the impact of the diets on survival and reproduction.\nAll data were analysed using SPSS v17.0 software (SPSS Inc., Chicago, IL, USA) and statistical significance was defined as p < 0.05. For mortality assessment, we used non-parametric survival analysis (Kaplan-Meier) and multiple pairwise comparisons among different groups were carried out using log-rank tests to assess efficiency. The total number of offspring, time to reproduction, and relative numbers of bacterial symbionts were analysed using the Wilcoxon ranked sum test for non-parametric data and a paired t-test for parametric data."}, "A. pisum [2]": {"system": "A. pisum", "assay": "Aphid reproduction after AMP feeding (time to reproduction, number of offspring)", "assay_type": "in vivo, Acyrthosiphon pisum", "settings": "50 µg/mL for three days; surviving aphids followed two weeks", "method": "The effect of each AMP on A. pisum reproduction was determined by counting the number of offspring and recording the delay before reproduction in surviving aphids for two weeks after treatment (Figure 2).\nas §1, with “The corresponding control (AP3 + acetone) was tested on the aphids, and survival was not affected when compared to AP3 diet alone or AP3 diet diluted with water (data not shown).” left out, “Aphids that survived the three-day treatment were transferred to agar plates containing bean plant leaves and reared for another two weeks in order to determine the impact of the diets on survival and reproduction.” left out\n(§2) All data were analysed using SPSS v17.0 software (SPSS Inc., Chicago, IL, USA) and statistical significance was defined as p < 0.05. […] The total number of offspring, time to reproduction, and relative numbers of bacterial symbionts were analysed using the Wilcoxon ranked sum test for non-parametric data and a paired t-test for parametric data."}, "B. aphidicola [3]": {"system": "B. aphidicola", "assay": "qPCR relative quantification of symbiont in treated aphids", "assay_type": "in vivo, Buchnera aphidicola in Acyrthosiphon pisum", "settings": "50 µg/mL", "method": "(§3) The density of the B. aphidicola and S. symbiotica populations in vivo was determined by qPCR. Genomic DNA was extracted from pools of five aphids, as previously described. Three biological replicates were prepared per treatment. Amplifications were carried out using a StepOnePlus™ Real-Time PCR System (Applied Biosystems, Waltham, MA, USA). The reaction volume was 10 μL, comprising 2 μL of template DNA (25 ng/μL), 10 μM of each specific primer and 5 μL of SYBR Green PCR Master Mix (Applied Biosystems). Each reaction was heated to 95 °C for 10 min, followed by 40 cycles of 95 °C for 15 s and 60 °C for 60 s. Melting curve analysis was performed by increasing the temperature from 60 °C to 95 °C for 15 s, cooling to 60 °C for 60 s and heating to 95 °C for 15 s. […] Relative abundance values for each symbiont were calculated by comparing the threshold cycle (Ct) of each target gene to that of the aphid ribosomal protein L32 gene and efficiencies were calculated using LinReg PCR software.\nas §2"}, "S. symbiotica [4]": {"system": "S. symbiotica", "assay": "qPCR relative quantification of symbiont in treated aphids", "assay_type": "in vivo, Serratia symbiotica in Acyrthosiphon pisum", "settings": "50 µg/mL", "method": "as §3, §2"}, "S. symbiotica [5]": {"system": "S. symbiotica", "assay": "FISH localization of symbiont in treated aphid nymphs", "assay_type": "in vivo, Serratia symbiotica in Acyrthosiphon pisum", "method": "(§4) FISH was carried out as previously described, with slight modifications. Treated A. pisum nymphs were fixed for three days in Carnoy’s solution (6:3:1 […]:glacial acetic acid) and then bleached in 6% H2O2 in 96% ethanol for 1 week. After bleaching, samples were washed in 100% ethanol and then hybridized overnight in hybridization buffer (20 mM Tris-HCl pH 8.0, 0.9 M NaCl, 0.01% sodium dodecylsulfate, 30% formamide) containing 100 nM of each fluorescent probe and 500 nM DAPI. After hybridization, samples were rinsed three times with phosphate buffered saline containing 0.3% Triton X-100 and viewed under a Leica TCS SP8 confocal microscope (Leica Microsystems, Wetzlar, Germany). We analysed a minimum of 20 samples from each treatment. The specificity of detection was confirmed using controls with no probe and specimens were pre-treated with RNase."}, "B. aphidicola [6]": {"system": "B. aphidicola", "assay": "FISH localization of symbiont in treated aphid nymphs", "assay_type": "in vivo, Buchnera aphidicola in Acyrthosiphon pisum", "settings": "highest concentration of each AMP, control treatments", "method": "as §4"}, "Escherichia coli": {"system": "Escherichia coli", "settings": "cited from earlier work"}, "[7]": {"system": "green peach aphid Myzus persicae (Sulzer)", "parameters": "method as in doi:10.1111/j.1439-0418.2006.01117.x", "settings": "cited from earlier work"}, "[8]": {"settings": "after three days of treatment, compared to control AP3 diet, pools of five aphids, three biological replicates"}, "[9]": {"settings": "two weeks after treatment, data not shown"}}, "note": "Read-outs that look alike come from different tables or passages of the source. No end group written: not given here.", "data": [{"compound": "ILSAIWSGIKSLF-NH2 [UyCT3]", "values": [{"measurement": "MIC (In Vitro)", "setting": "S. symbiotica CWBI-2.3", "value": 125, "unit": "mg/L"}]}, {"compound": "CO[C@H]1/C=C/O[C@@]2(C)Oc3c(C)c(O)c4c(O)c(c(/C=N/N5CCN(C)CC5)c(O)c4c3C2=O)NC(=O)/C(C)=C\\C=C\\[C@H](C)[C@H](O)[C@@H](C)[C@@H](O)[C@@H](C)[C@H](OC(C)=O)[C@@H]1C", "note": "[Rifampicin]", "values": [{"measurement": "survival during the two weeks after treatment", "setting": "A. pisum [1]; 50 µg/mL for three days, survivors monitored for the following two weeks on bean leaves, data not shown", "value": "did not affect aphid survival"}, {"measurement": "% Survival", "setting": "A. pisum [1]; 50 µg/mL in AP3 diet", "value": 92.5, "unit": "%"}, {"measurement": "Kaplan-Meier analysis: Mean, Estimate (survival time)", "setting": "A. pisum [1]; 50 µg/mL", "value": 2.925}, {"measurement": "MIC", "setting": "S. symbiotica CWBI-2.3; Serratia symbiotica, CWBI2.3, read-out: MIC (In Vitro)", "value": 50, "unit": "mg/L"}, {"measurement": "number of offspring", "setting": "A. pisum [2]", "value": "hardly any offspring"}, {"measurement": "density of B. aphidicola (qPCR, relative abundance)", "setting": "B. aphidicola [3]; [8]", "value": "significant reduction"}, {"measurement": "density of B. aphidicola (qPCR)", "setting": "B. aphidicola [3]; [9]", "value": "significant reduction"}, {"measurement": "density of S. symbiotica (qPCR, relative abundance)", "setting": "S. symbiotica [4]; [8]", "value": "significant reduction"}, {"measurement": "density of S. symbiotica (qPCR)", "setting": "S. symbiotica [4]; [9]", "value": "significant reduction"}, {"measurement": "S. symbiotica FISH signal", "setting": "S. symbiotica [5]; 48 h after exposure, highest concentration of each AMP, control treatments, minimum of 20 samples per treatment", "value": "reduced the S. symbiotica signal"}, {"measurement": "intensity of the B. aphidicola FISH signal", "setting": "B. aphidicola [6]; aphid nymphs, 24 and 48 h after exposure", "value": "neither the AMPs nor rifampicin reduced the intensity of the signal"}]}, {"compound": "IWSAIWSGIKGLL-NH2 [UyCT5]", "values": [{"measurement": "nymphs killed after the first day", "setting": "A. pisum [1]; in vivo, 48 h, 500 µg/mL", "value": 10, "unit": "%"}, {"measurement": "MIC (In Vitro)", "setting": "S. symbiotica CWBI-2.3", "value": 125, "unit": "mg/L"}]}, {"compound": "GFWGKLLEGVKKAI-NH2 [D5]", "values": [{"measurement": "MIC (In Vitro)", "setting": "S. symbiotica CWBI-2.3", "value": 500, "unit": "mg/L"}]}, {"compound": "FPFLLSLIPSAISAIKRL-NH2 [Uy234]", "values": [{"measurement": "MIC (In Vitro)", "setting": "S. symbiotica CWBI-2.3", "value": ">500", "unit": "mg/L"}]}, {"compound": "LWGKLWEGVKSLI-NH2 [D3]", "values": [{"measurement": "MIC (In Vitro)", "setting": "S. symbiotica CWBI-2.3", "value": 250, "unit": "mg/L"}]}, {"compound": "GNRPVYIPPPRPPHPRL-NH2 [Apidaecin]", "values": [{"measurement": "MIC (In Vitro)", "setting": "S. symbiotica CWBI-2.3", "value": ">500", "unit": "mg/L"}]}, {"compound": "ILSAIWSGIKGLL-NH2 [Uy17]", "values": [{"measurement": "MIC (In Vitro)", "setting": "S. symbiotica CWBI-2.3", "value": 250, "unit": "mg/L"}]}, {"compound": "GFWGKLWEGVKNAIKKK-NH2 [D11]", "values": [{"measurement": "MIC (In Vitro)", "setting": "S. symbiotica CWBI-2.3", "value": ">500", "unit": "mg/L"}]}, {"compound": "indolicidin: an AMP from bovine neutrophils (ILPWKWPWWPWRR; ends and bridges not checked; UniProt P33046 131-143, looked up)", "values": [{"measurement": "activity against Escherichia coli", "setting": "Escherichia coli", "value": "showed activity"}, {"measurement": "activity against Myzus persicae", "setting": "[7]", "value": "showed activity"}]}, {"compound": "O=[N+]([O-])NC1=NCCN1Cc1ccc(Cl)nc1", "note": "[Imidacloprid]", "values": [{"measurement": "% Survival", "setting": "A. pisum [1]; 5 µg/mL in AP3 diet", "value": 0, "unit": "%"}, {"measurement": "Kaplan-Meier analysis: Mean, Estimate (survival time)", "setting": "A. pisum [1]; 5 µg/mL", "value": 1.960}, {"measurement": "localization of the S. symbiotica FISH signal", "setting": "S. symbiotica [5]; 24 and 48 h after exposure, control treatment", "value": "did not affect the localization of the bacterial symbionts"}, {"measurement": "localization of the B. aphidicola FISH signal", "setting": "B. aphidicola [6]; 48 h after treatment", "value": "did not affect the localization of the bacterial symbionts"}]}, {"compound": "RGFRKHFNKLVKKVKHTISETAHVAKDTAVIAGSGAAVVAAT-NH2 [Stomoxyn]", "values": [{"measurement": "MIC (In Vitro)", "setting": "S. symbiotica CWBI-2.3", "value": ">500", "unit": "mg/L"}]}, {"compound": "GFWGKLWEGVKNAI-NH2 [UyCT1]", "values": [{"measurement": "MIC (In Vitro)", "setting": "S. symbiotica CWBI-2.3", "value": 125, "unit": "mg/L"}]}, {"compound": "FPFLKLSLKIPKSAIKSAIKRL-NH2 [D10]", "values": [{"measurement": "MIC (In Vitro)", "setting": "S. symbiotica CWBI-2.3", "value": ">500", "unit": "mg/L"}]}, {"compound": "FLSTIWNGIKGLL-NH2 [Uy192]", "values": [{"measurement": "MIC (In Vitro)", "setting": "S. symbiotica CWBI-2.3", "value": 500, "unit": "mg/L"}]}, {"compound": "FFSALLSGIKSLF-NH2 [Um4]", "values": [{"measurement": "MIC (In Vitro)", "setting": "S. symbiotica CWBI-2.3", "value": ">500", "unit": "mg/L"}]}]}
